Data from patent US20210032651A1, “IMPROVEMENT OF HERBICIDE TOLERANCE TO HPPD INHIBITORS BY DOWN-REGULATION OF PUTATIVE 4-HYDROXYPHENYLPYRUVATE REDUCTASES IN SOYBEAN” (BASF SE, priority 2017, published 2021).

Tested on: soybean T1 plants transformed with pMLS0519 or pCPE825
Assay: Field trial of the T1 generation, herbicide tolerance
Assay type: in vivo
Conditions: Puerto Rico, pMLS0519 and pCPE825 the most effective of the constructs tested

CS(=O)(=O)c1cc(C(F)(F)F)ccc1C(=O)c1cnoc1C1CC1 [isoxaflutole, (5-cyclopropyl-4-isoxazolyl)[2-(methylsulfonyl)-4-(trifluoromethyl)phenyl]methanone]
tolerance in field trial: good tolerance
